What was measured:
[1] = tested on: uterus, GI tract, esophagus, skin, tumor, lungs; assay: Example 1: post mortem tissue weights and histopathology (safety); assay type: in vivo, mouse; conditions: Example 1, 10 weeks dosing 5 d/wk
Experimental: At the time of euthanasia organs were harvested and wet tissue weights were measured. In addition to the tissues the weight of the remaining tumor was determined so that the tumor weight can be correlated with the calculated tumor volumes.
The various tissues were fixed in formalin, then processed and embedded in paraffin. Hematoxylin and eosin (H&E) staining was done on 5 micron sections from each of the tissues.
Following euthanasia organ weights were collected for the lungs, uterus, and GI tract. In addition, the tumor was resected and weighed. […]
The examined tissues included the lungs, GI tract (esophagus), uterus, tumor, and the skin near the A549 tumor xenograft. […] All tissues were analyzed microscopically following H&E staining. For these analyses 5 tumors, 5 lung samples, and 5 skin samples were analyzed from each experimental group. In addition, three uterus samples and three esophagus samples from each experimental group were analyzed. All tissue samples were prepared, sectioned, and stained with H&E. Tissues were analyzed for gross morphology and H&E sections were evaluated for inflammatory cells, capillary distension, and congestion. A veterinary pathologist scored the severity and distribution of anomalies observed. […]

[2] = cited from earlier work
[3] = Genistein provided as a nano suspension in accordance with US 2012/0164190 and 2012/0121654; cited from earlier work

SMILES: O=c1c(-c2ccc(O)cc2)coc2cc(O)cc(O)c12 [Genistein, 5,7-dihydroxy-3-(4-hydroxyphenyl)-chromen-4-one]
- Uterus wet weight [1]: did not dramatically affect the wet uterine weights
- Solubility in water [2]: virtually insoluble in water
- Oral bioavailability [3]: significantly improved oral bioavailability

From US20150126597A1, “GENISTEIN CANCER TREATMENT REGIMEN MAXIMIZING CANCER RADIATION THERAPY BENEFITS” (Humanetics Corporation, priority 2013, published 2015)
